Laboratory results reported in patent US20230183237A1, “COMPETITIVE AND NONCOMPETITIVE INHIBITORS OF THE MUSCARINIC ACETYLCHOLINE RECEPTOR M5” (Vanderbilt University, priority 2020, published 2023).
pIC50: −log10 of the molar value.

Each compound was assayed against T1, hM5 (Homo sapiens, UniProt P08912) (assay: Calcium mobilization concentration-response (IC50 vs EC80 acetylcholine), CHO hM5). Details: CELL LINE hM5; calcium mobilization, EC80 acetylcholine addition; read-out: IC50.
T1 construct: expressed in transfected cells
T1 sequence (P08912 1-532): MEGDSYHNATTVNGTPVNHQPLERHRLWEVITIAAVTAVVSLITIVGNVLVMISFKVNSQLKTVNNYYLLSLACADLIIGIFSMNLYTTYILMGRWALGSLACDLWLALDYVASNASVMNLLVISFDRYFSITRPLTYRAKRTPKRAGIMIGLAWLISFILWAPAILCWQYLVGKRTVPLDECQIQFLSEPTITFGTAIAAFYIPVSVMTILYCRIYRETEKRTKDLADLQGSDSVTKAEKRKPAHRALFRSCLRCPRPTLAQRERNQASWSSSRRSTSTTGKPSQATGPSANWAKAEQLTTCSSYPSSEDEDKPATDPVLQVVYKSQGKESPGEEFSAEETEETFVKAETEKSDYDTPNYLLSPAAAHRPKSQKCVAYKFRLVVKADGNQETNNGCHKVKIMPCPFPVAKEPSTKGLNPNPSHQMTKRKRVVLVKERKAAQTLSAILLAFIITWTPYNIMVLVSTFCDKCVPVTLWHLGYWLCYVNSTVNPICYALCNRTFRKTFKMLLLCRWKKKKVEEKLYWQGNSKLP
Type: cell-based
Method in brief: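 IC50 values derive from percent maximal acetylcholine response after an EC80 ACh addition, measured as kinetic calcium fluorescence (static ratio, max−min). Test compounds were added 140 s before agonist. Cells: stable hM5-CHO in HEPES-buffered HBSS with 2.5 mM probenecid, pH 7.4; ≥3 independent triplicate determinations.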
In the case of `[2H]C1([2H])Oc2cc(C)c(C3CCN(S(=O)(=O)c4cnc(C)s4)CC3)cc2OC1([2H])[2H]` [Compound 392, 2-methyl-5-((4-(7-methyl-2,3-dihydrobenzo[b][1,4]dioxin-6-yl-2,2,3,3-d4)piperidin-1-yl)sulfonyl)thiazole], the pIC50 was less than 5.00.
`Cc1cc2ncnn2nc1C1=CCN(S(=O)(=O)c2cnn(C)c2C)CC1` [Compound 169, 6-(1-((1,5-dimethyl-1H-pyrazol-4-yl)sulfonyl)-1,2,3,6-tetrahydropyridin-4-yl)-7-methyl-[1,2,4]triazolo[1,5-b]pyridazine] showed a pIC50 of 6.01.
Work on `Cc1nn(C)c(C(F)(F)F)c1S(=O)(=O)N1CCC(c2cn3ncnc3c(F)c2C)CC1` [Compound 266, 6-(1-((1,3-dimethyl-5-(trifluoromethyl)-1H-pyrazol-4-yl)sulfonyl)piperidin-4-yl)-8-fluoro-7-methyl-[1,2,4]triazolo[1,5-a]pyridine] yielded a pIC50 of 6.55.
In the case of `Cc1nc(C)c(S(=O)(=O)N2CCC(c3cn4ncnc4cc3C(F)(F)F)CC2)s1` [Compound 279, 2,4-dimethyl-5-((4-(7-(trifluoromethyl)-[1,2,4]triazolo[1,5-a]pyridin-6-yl)piperidin-1-yl)sulfonyl)thiazole], the pIC50 was less than 5.00.
In the case of `Cc1c(S(=O)(=O)N2CCC(c3cn4ncnc4cc3Cl)CC2)cnn1C` [Compound 291, 7-chloro-6-(1-((1,5-dimethyl-1-pyrazol-4-yl)sulfonyl)piperidin-4-yl)-[1,2,4]triazolo[1,5-a]pyridine], the pIC50 was 7.44.
Compound `Cc1cc2ncnn2cc1C1CCN(S(=O)(=O)c2ccc(F)cc2)CC1` [Compound 153, 6-(1-((4-fluorophenyl)sulfonyl)piperidin-4-yl)-7-methyl-[1,2,4]triazolo[1,5-a]pyridine] has a pIC50 of 5.39.
Compound `Cc1cc2c(cc1C1CCN(S(=O)(=O)c3cnn4c3CCC4)CC1)OCO2` [Compound 374, 3-((4-(6-methylbenzo[d][1,3]dioxol-5-yl)piperidin-1-yl)sulfonyl)-5,6-dihydro-4H-pyrrolo[1,2-b]pyrazole] has a pIC50 of 8.15.

Same assay, conditions: CELL LINE hM5; vs EC80 acetylcholine; read-out: IC50
With `CCc1cc2ncnn2cc1C1CCN(S(=O)(=O)c2cn(C)nn2)CC1` [Compound 562, 7-ethyl-6-(1-((1-methyl-1H-1,2,3-triazol-4-yl)sulfonyl)piperidin-4-yl)-[1,2,4]triazolo[1,5-a]pyridine] the pIC50 was 6.01.
For `Cc1cc(F)c(F)cc1C1=CCN(S(=O)(=O)c2cnn(C)c2C)CC1` [Compound 404, 4-(4,5-difluoro-2-methylphenyl)-1-((1,5-dimethyl-1H-pyrazol-4-yl)sulfonyl)-1,2,3,6-tetrahydropyridine], the pIC50 was 5.81.
`Cn1ncc(S(=O)(=O)N2CCC(c3c(C(F)(F)F)nc4n3CCCC4)CC2)c1Cl` [Compound 555, 3-(1-((5-chloro-1-methyl-1H-pyrazol-4-yl)sulfonyl)piperidin-4-yl)-2-(trifluoromethyl)-5,6,7,8-tetrahydroimidazo[1,2-a]pyridine] was tested, and the pIC50 was less than 5.00.
For `COc1c(S(=O)(=O)N2CCC(c3cn4ncnc4cc3C)CC2)cnn1C` [Compound 573, 6-(1-((5-methoxy-1-methyl-1H-pyrazol-4-yl)sulfonyl)piperidin-4-yl)-7-methyl-[1,2,4]triazoto[1,5-a]pyridine], the pIC50 was 7.92.
With `Cc1ncc(S(=O)(=O)N2CCC(c3c4c(nn3C)CCCC4)CC2)s1` [Compound 593, 2-methyl-5-((4-(2-methyl-4,5,6,7-tetrahydro-2H-indazol-3-yl)piperidin-1-yl)sulfonyl)thiazole] the pIC50 was less than 5.00.
`Cc1cc2ncnn2nc1C1CCN(S(=O)(=O)c2cnc3sccn23)CC1` [Compound 535, 5-((4-(7-methyl-[1,2,4]triazolo[1,5-b]pyridazin-6-yl)piperidin-1-yl)sulfonyl)imidazo[2,1-b]thiazole] showed a pIC50 of 6.88.
`Cc1c(C2CCN(S(=O)(=O)c3nncn3C)CC2)cn2ncnc2c1F` [Compound 542, 8-fluoro-7-methyl-6-(1-((4-methyl-4H-1,2,4-triazol-3-yl)sulfonyl)piperidin-4-yl)-[1,2,4]triazolo[1,5-a]pyridine] gave a pIC50 of 5.77.
